Read-outs that look alike come from different tables or passages of the source.
Key:
HSV-2 TS6 = conditions: HSV-2 Ts6
Recombinant 6-26 = experiment: Drug sensitivity of HSV-1/HSV-2 intertypic Recombinant 6-26; conditions: read-out: ED50
[1] = system: HSV-1 wild type Strain 17; experiment: Drug sensitivity of HSV-1 wild type Strain 17; conditions: Human alphaherpesvirus 1, read-out: ED50
Recombinant 6-19 = experiment: Drug sensitivity of HSV-1/HSV-2 intertypic Recombinant 6-19; conditions: read-out: ED50
Recombinant 6-34 = experiment: Drug sensitivity of HSV-1/HSV-2 intertypic Recombinant 6-34; conditions: read-out: ED50
[2] = Comparative solubilities in pH 7.2 buffer at 25°; assay type: physicochemical
Protocol: Comparative Solubilities in pH 7.2 Buffer at 25°
Solubilities were determined by suspending an excess amount of the compound in approximately 0.15 molar phosphate buffer (pH 7.2) and shaking overnight in a water bath at 25° to give a saturated solution. The concentration of the compound in the filtered solution was calculated on the basis of spectrophotometric measurements, i.e. comparison of the ultraviolet absorbance at the λmax for the saturated solution with the absorbance value observed for a known concentration of the compound.

[3] = system: human cytomegalovirus, strain AD169; experiment: Plaque inhibition, cytomegalovirus on MRC5 cells (Table V); assay type: cell-based, human cytomegalovirus; MRC5 (human diploid lung) cells
[4] = system: Varicella-Zoster virus, strain KMcC; experiment: Plaque inhibition, Varicella Zoster virus on MRC5 cells (Table V); assay type: cell-based, Varicella-Zoster virus; MRC5 (human diploid lung) cells
Herpes simplex virus = experiment: Plaque inhibition, Herpes simplex virus on MRC5 cells (Table V); assay type: cell-based, Herpes simplex virus; MRC5 (human diploid lung) cells
HSV-1 = experiment: In vitro activity against HSV-1 with and without added thymidine; assay type: cell-based; conditions: for EC50: read-out: ED50 (the source's name)
Vaccinia = experiment: microbe, parasite or virus in culture; assay type: cell-based, vaccinia; MRC5 (human diploid lung) cells; conditions: for EC50: Orthopoxvirus vaccinia, MRC5, read-out: ED50, concentration required for 50% plaque inhibition
Recombinant 6-30 = experiment: Drug sensitivity of HSV-1/HSV-2 intertypic Recombinant 6-30; conditions: read-out: ED50
[5] = system: Herpes simplex virus type 1 (Strain S); experiment: Orofacial Herpes simplex virus type 1 infection in mice, oral treatment (Table XIII); assay type: in vivo, Herpes simplex virus type 1; HRS (hairless) mice; conditions: for Lesion Incidence (%) / Lesion Incidence (number/Total) / Lesion Severity (scale 0 to 4): 7 days
Protocol: Twenty grams HRS (hairless) mice were infected on the abraded orofacial area with Herpes simplex virus type 1 (Strain S). […] At 7 days after initiation of infection, the extent of lesion development in the orofacial area was measured on a scale of 0 (no lesions) to 4 (massive lesions over the entire snout).

[6] = system: Herpes simplex virus type I (HSV-1), strain Schooler; experiment: Treatment of Herpes simplex virus infection in mice, repeat experiment (Table III); assay type: in vivo, HSV-1; ICR/Ha mice; conditions: for Percent Survival: at 15 days
Protocol: Twenty gram ICR/Ha mice were injected intraperitoneally (ip) with 0.5 ml of a 10^-5 dilution of a stock preparation of Herpes simplex virus type I (HSV-1), strain Schooler. This virus challenge infected each animal with approximately 100 LD50. […] The placebo group was composed of 45 animals. All compounds were solubilized in physiological saline, pH 11.5.

[7] = system: Herpes simplex virus type 1; experiment: Tube dilution assay, viral cytopathology of HSV-1 in rabbit kidney cell cultures; conditions: Human alphaherpesvirus 1, in Oryctolagus cuniculus
[8] = system: Herpes simplex virus type 1; experiment: Intraperitoneal Herpes simplex type 1 infection in mice, oral treatment (Table XI); assay type: in vivo, Herpes simplex type 1; ICR/Ha mice; conditions: for Percent Survival: at 13 days
From the text: ICR/Ha mice were infected as described in Example 36. […] These animals served as toxicity controls.

Varicella-Zoster virus = experiment: Varicella-Zoster plaque reduction assay on human MRC-5 monolayers; assay type: cell-based, Varicella-Zoster (Strain KMcC); human MRC-5 cells
From the text: ^b Plaque reduction assay on human MRC5 cell monolayers.

[9] = Human alphaherpesvirus 1, absence of thymidine
[10] = Human alphaherpesvirus 1, presence of thymidine (20 μg/ml)

Nc1nc2c(ncn2COC2COP(=O)(O)OC2)c(=O)[nH]1 (stereo not shown) [Cyclic Monophosphate, Potassium 9-(1,3-dihydroxy-2-propoxymethyl)guanine cyclic monophosphate]
sensitivity of HSV-2 Ts6 (HSV-2 TS6): sensitive | EC50 (Recombinant 6-26): 1.1 µg/mL | EC50 [1]: 0.9 µg/mL | EC50 (Recombinant 6-19): 4.7 µg/mL | EC50 (Recombinant 6-34): 6.3 µg/mL | solubility compared to compound of Formula II and acyclovir ([2]; qualitative statement): readily soluble | more active than acyclovir [3]: approximately 10 fold | potency relative to compound of Formula II [3]: equipotent | EC50 ([3]; Human betaherpesvirus 5, AD169, MRC5, read-out: ED50, concentration required for 50% plaque inhibition): 0.8 µg/mL | in vitro effectiveness against Varicella Zoster virus relative to acyclovir or compound of Formula II [4]: substantially more effective | more active than either compound of Formula II or acyclovir [4]: approximately 10 fold | EC50 ([4]; Human alphaherpesvirus 3, MRC5, read-out: ED50, concentration required for 50% plaque inhibition): 0.4 to 0.8 µg/mL | EC50 (Herpes simplex virus; MRC5, read-out: ED50, concentration required for 50% plaque inhibition): 3 to 6 µg/mL | EC50 (HSV-1; [9]): 12.5 µg/mL | EC50 (HSV-1; [10]): 25 to 50 µg/mL | EC50 (Vaccinia): 6 to 12 µg/mL | inhibition of DNA virus (Vaccinia; vaccinia): inhibitory | EC50 (Recombinant 6-30): 0.3 µg/mL

Nc1nc2c(ncn2COC(CO)CO)c(=O)[nH]1 [Compound of Formula II, 9-(1,3-Dihydroxy-2-propoxymethyl)guanine]
Lesion Incidence (%) ([5]; 0.2 mg/kg/day oral): 100% | Lesion Incidence (number/Total) ([5]; 0.2 mg/kg/day oral): 7/7 | Lesion Severity (scale 0 to 4) ([5]; 0.2 mg/kg/day oral): 2.93 | Lesion Incidence (%) ([5]; 0.8 mg/kg/day oral): 100% | Lesion Incidence (number/Total) ([5]; 0.8 mg/kg/day oral): 7/7 | Lesion Severity (scale 0 to 4) ([5]; 0.8 mg/kg/day oral): 2.93 | Lesion Incidence (%) ([5]; 3.1 mg/kg/day oral): 67% | Lesion Incidence (number/Total) ([5]; 3.1 mg/kg/day oral): 6/9 | Lesion Severity (scale 0 to 4) ([5]; 3.1 mg/kg/day oral): 1.00 | Lesion Incidence (%) ([5]; 12.5 mg/kg/day oral): 20% | Lesion Incidence (number/Total) ([5]; 12.5 mg/kg/day oral): 2/10 | Lesion Severity (scale 0 to 4) ([5]; 12.5 mg/kg/day oral): 0.45 | Lesion Incidence (%) ([5]; 50 mg/kg/day oral): 10% | Lesion Incidence (number/Total) ([5]; 50 mg/kg/day oral): 1/10 | Lesion Severity (scale 0 to 4) ([5]; 50 mg/kg/day oral): 0.05 | incidence of lesions vs placebo ([5]; 50 and 12.5 mg/kg): statistically significant protection | extent of lesion development vs placebo ([5]; all concentrations used): statistically significant protection | relative potency to acycloguanosine ([5]; statistically significant): 6.9 | sensitivity of HSV-2 Ts6 (HSV-2 TS6): resistant | Avg. Survival Time ([6]; 0.2 mg/kg/day s.c.): 9.0 days | Percent Survival ([6]; 0.2 mg/kg/day s.c.): 26% | Avg. Survival Time ([6]; 0.8 mg/kg/day s.c.): 9.8 days | Percent Survival ([6]; 0.8 mg/kg/day s.c.): 40% | Avg. Survival Time ([6]; 3.1 mg/kg/day s.c.): 11.8 days | Percent Survival ([6]; 3.1 mg/kg/day s.c.): 46% | Avg. Survival Time ([6]; 12.5 mg/kg/day s.c.): 17.2 days | Percent Survival ([6]; 12.5 mg/kg/day s.c.): 93% | Avg. Survival Time ([6]; 50 mg/kg/day s.c.): 19.5 days | Percent Survival ([6]; 50 mg/kg/day s.c.): 100% | calculated average relative potency to acycloguanosine (95% CI) ([6]; combined results of both mouse experiments): 287.0 | minimal effective concentration ([7]; read-out: Minimum Effective Concentration, Strain McIntyre): 3 µg/mL | minimal effective concentration ([7]; read-out: Minimum Effective Concentration, Strain McKrae): 1 to 3 µg/mL | minimal effective concentration ([7]; read-out: Minimum Effective Concentration, Strain S): 1 to 3 µg/mL | minimal effective concentration ([7]; read-out: Minimum Effective Concentration, Strain Schooler): 1 to 3 µg/mL | EC50 (Recombinant 6-26): 0.05 µg/mL | Avg. Survival Time ([8]; 0.2 mg/kg/day oral): 6.8 days | Percent Survival ([8]; 0.2 mg/kg/day oral): 0% | Avg. Survival Time ([8]; 0.8 mg/kg/day oral): 8.5 days | Percent Survival ([8]; 0.8 mg/kg/day oral): 20% | Avg. Survival Time ([8]; 3.1 mg/kg/day oral): 11.7 days | Percent Survival ([8]; 3.1 mg/kg/day oral): 50% | Avg. Survival Time ([8]; 12.5 mg/kg/day oral): 13.9 days | Percent Survival ([8]; 12.5 mg/kg/day oral): 80% | Avg. Survival Time ([8]; 50 mg/kg/day oral): 16.9 days | Percent Survival ([8]; 50 mg/kg/day oral): 100% | extension of survival time vs placebo ([8]; 50, 12.5, 3.1 and 0.8 mg/kg daily): statistically significant extension of survival time | survival vs placebo ([8]; 50 and 12.5 mg/kg groups): statistically significantly longer | overt toxicity, final weight of test animals ([8]; oral, twice daily for 7 days): no evidence of overt toxicity | relative potency to acycloguanosine ([8]; statistically significant): 50.3 | EC50 [1]: 0.34 µg/mL | EC50 (Recombinant 6-19): 0.1 µg/mL | EC50 (Recombinant 6-34): 0.07 µg/mL | minimal effective concentration (Varicella-Zoster virus; Human alphaherpesvirus 3, MRC5, Strain KMcC, plaque reduction, read-out: Minimum Effective Concentration): 1 to 2 µg/mL | comparative activity (Varicella-Zoster virus; compound of formula II vs acycloguanosine): equally active | solubility ([2]; aqueous buffer, pH 7.2 phosphate buffer, 25°): 2800 µg/mL | more active than acyclovir [3]: approximately 10 fold | EC50 ([3]; Human betaherpesvirus 5, AD169, read-out: ED50, concentration required for 50% plaque inhibition, Cytomegalovirus, MRC5): 0.8 µg/mL | EC50 ([4]; Human alphaherpesvirus 3, read-out: ED50, concentration required for 50% plaque inhibition, Varicella Zoster virus, MRC5): 3 to 6 µg/mL | EC50 (Herpes simplex virus; read-out: ED50, concentration required for 50% plaque inhibition, Herpes simplex virus, MRC5): 0.2 µg/mL | reduction of antiviral activity by thymidine (HSV-1; 20 μg thymidine/ml): greater than 15 fold | EC50 (HSV-1; [9]): 0.8 to 1.6 µg/mL | EC50 (HSV-1; [10]): 25 µg/mL | EC50 (Vaccinia): 50 to 100 µg/mL | EC50 (Recombinant 6-30): 0.08 µg/mL
